Consider one molecule from paper PMC12780140, “Structural basis of sodium ion-dependent carnitine transport by OCTN2” (Nature Communications, 2025).

In this test the target is T1, OCTN2 (hOCTN2) (Homo sapiens, UniProt O76082, Y211A).
T1 construct: gene SLC22A5; hOCTN2 mutant expressed in Xenopus laevis oocytes
T1 sequence (O76082 1-557 Y211A): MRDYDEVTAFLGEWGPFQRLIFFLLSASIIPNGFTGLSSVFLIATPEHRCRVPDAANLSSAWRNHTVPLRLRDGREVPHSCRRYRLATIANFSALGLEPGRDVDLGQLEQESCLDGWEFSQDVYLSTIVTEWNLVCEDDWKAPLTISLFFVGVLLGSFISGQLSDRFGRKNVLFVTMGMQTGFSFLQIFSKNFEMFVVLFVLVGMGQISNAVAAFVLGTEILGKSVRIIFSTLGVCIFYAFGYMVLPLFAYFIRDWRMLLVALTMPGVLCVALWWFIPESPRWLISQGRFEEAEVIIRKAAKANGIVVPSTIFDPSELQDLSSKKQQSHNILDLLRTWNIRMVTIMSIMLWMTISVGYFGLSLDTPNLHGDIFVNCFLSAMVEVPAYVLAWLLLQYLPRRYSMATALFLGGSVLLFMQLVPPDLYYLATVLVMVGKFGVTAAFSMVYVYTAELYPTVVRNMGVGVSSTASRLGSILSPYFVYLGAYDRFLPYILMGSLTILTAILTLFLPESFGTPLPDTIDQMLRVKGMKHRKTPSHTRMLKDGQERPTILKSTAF
Description: two-electrode voltage clamp in oocytes, apparent KM (increased versus wildtype). In kind it is cell-based. Background: Two-electrode voltage clamp holds a large cell at a set potential and records current.

As for `C[N+](C)(C)C[C@H](O)CC(=O)[O-]` [L-carnitine], the “two-electrode voltage clamp in oocytes, apparent KM (increased versus wildtype)” value is “Mutating this residue to an alanine shows a similar increase in carnitine KM as the mutants above (Fig. 2f)”.
